Experimental data taken from ChEMBL document CHEMBL3751785, “Development and structural analysis of adenosine site binding tankyrase inhibitors” (Bioorg Med Chem Lett, 2016).

Columns and labels:
[1] = molecular target: Protein mono-ADP-ribosyltransferase PARP14 (Homo sapiens, UniProt Q460N5); experiment: Inhibition of human ARTD8 by fluorescence analysis
[2] = molecular target: T1, Poly [ADP-ribose] polymerase tankyrase-1 (Homo sapiens, UniProt O95271); experiment: Inhibition of human TNKS1 by fluorescence analysis
T1 sequence (O95271 whole entry): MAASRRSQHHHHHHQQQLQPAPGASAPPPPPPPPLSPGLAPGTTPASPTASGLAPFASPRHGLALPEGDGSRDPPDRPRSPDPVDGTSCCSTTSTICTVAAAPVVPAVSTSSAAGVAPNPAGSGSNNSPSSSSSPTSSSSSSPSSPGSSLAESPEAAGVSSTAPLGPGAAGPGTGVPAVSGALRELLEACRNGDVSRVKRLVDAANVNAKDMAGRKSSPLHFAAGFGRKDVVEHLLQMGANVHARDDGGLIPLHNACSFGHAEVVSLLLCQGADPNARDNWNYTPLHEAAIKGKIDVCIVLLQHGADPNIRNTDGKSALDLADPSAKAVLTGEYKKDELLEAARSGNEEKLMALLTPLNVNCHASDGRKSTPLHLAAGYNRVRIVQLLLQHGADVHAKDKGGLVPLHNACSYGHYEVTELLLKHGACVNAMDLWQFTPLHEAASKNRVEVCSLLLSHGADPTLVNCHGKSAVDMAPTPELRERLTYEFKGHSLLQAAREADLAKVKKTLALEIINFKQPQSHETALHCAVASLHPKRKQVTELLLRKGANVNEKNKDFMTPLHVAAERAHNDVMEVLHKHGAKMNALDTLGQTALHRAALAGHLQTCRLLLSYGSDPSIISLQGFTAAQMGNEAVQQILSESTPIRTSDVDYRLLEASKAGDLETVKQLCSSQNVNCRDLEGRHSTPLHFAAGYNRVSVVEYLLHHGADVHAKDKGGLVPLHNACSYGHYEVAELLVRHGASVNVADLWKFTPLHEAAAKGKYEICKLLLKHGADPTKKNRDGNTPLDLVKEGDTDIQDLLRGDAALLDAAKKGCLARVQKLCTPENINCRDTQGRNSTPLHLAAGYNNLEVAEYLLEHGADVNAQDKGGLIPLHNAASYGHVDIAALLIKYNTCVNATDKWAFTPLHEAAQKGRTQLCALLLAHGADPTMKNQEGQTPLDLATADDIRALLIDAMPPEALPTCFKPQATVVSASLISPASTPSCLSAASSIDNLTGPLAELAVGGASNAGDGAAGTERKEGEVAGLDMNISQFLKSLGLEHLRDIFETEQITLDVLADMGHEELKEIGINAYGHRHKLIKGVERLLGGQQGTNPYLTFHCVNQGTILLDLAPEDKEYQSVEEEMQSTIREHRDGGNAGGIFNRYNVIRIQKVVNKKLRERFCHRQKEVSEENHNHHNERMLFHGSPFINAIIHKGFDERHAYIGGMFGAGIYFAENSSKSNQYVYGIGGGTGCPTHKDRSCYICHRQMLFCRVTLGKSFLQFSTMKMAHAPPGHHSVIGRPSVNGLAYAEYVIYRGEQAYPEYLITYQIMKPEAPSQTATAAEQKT

[3] = molecular target: T2, Protein mono-ADP-ribosyltransferase PARP15 (Homo sapiens, UniProt Q460N3); experiment: Inhibition of human ARTD7 by fluorescence analysis
T2 sequence (Q460N3 whole entry): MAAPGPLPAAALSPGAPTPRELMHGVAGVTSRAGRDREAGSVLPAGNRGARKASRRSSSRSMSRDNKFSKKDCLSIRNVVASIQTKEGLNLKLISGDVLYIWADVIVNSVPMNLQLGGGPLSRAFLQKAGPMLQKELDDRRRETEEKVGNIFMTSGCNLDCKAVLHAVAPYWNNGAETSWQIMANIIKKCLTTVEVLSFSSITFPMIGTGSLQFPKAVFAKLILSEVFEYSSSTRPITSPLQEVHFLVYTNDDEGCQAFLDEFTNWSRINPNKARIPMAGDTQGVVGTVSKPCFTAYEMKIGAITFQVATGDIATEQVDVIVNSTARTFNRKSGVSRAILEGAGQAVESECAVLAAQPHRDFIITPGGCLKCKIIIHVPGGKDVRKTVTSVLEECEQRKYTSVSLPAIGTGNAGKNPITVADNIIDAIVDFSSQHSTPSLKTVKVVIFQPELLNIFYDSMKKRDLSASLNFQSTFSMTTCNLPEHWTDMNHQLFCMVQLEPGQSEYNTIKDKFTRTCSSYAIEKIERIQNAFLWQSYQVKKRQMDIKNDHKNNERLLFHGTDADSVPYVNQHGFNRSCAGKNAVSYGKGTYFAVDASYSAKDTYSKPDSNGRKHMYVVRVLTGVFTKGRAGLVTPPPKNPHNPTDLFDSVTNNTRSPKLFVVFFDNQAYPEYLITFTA

Sequence of Protein mono-ADP-ribosyltransferase PARP14 (Q460N5 whole entry): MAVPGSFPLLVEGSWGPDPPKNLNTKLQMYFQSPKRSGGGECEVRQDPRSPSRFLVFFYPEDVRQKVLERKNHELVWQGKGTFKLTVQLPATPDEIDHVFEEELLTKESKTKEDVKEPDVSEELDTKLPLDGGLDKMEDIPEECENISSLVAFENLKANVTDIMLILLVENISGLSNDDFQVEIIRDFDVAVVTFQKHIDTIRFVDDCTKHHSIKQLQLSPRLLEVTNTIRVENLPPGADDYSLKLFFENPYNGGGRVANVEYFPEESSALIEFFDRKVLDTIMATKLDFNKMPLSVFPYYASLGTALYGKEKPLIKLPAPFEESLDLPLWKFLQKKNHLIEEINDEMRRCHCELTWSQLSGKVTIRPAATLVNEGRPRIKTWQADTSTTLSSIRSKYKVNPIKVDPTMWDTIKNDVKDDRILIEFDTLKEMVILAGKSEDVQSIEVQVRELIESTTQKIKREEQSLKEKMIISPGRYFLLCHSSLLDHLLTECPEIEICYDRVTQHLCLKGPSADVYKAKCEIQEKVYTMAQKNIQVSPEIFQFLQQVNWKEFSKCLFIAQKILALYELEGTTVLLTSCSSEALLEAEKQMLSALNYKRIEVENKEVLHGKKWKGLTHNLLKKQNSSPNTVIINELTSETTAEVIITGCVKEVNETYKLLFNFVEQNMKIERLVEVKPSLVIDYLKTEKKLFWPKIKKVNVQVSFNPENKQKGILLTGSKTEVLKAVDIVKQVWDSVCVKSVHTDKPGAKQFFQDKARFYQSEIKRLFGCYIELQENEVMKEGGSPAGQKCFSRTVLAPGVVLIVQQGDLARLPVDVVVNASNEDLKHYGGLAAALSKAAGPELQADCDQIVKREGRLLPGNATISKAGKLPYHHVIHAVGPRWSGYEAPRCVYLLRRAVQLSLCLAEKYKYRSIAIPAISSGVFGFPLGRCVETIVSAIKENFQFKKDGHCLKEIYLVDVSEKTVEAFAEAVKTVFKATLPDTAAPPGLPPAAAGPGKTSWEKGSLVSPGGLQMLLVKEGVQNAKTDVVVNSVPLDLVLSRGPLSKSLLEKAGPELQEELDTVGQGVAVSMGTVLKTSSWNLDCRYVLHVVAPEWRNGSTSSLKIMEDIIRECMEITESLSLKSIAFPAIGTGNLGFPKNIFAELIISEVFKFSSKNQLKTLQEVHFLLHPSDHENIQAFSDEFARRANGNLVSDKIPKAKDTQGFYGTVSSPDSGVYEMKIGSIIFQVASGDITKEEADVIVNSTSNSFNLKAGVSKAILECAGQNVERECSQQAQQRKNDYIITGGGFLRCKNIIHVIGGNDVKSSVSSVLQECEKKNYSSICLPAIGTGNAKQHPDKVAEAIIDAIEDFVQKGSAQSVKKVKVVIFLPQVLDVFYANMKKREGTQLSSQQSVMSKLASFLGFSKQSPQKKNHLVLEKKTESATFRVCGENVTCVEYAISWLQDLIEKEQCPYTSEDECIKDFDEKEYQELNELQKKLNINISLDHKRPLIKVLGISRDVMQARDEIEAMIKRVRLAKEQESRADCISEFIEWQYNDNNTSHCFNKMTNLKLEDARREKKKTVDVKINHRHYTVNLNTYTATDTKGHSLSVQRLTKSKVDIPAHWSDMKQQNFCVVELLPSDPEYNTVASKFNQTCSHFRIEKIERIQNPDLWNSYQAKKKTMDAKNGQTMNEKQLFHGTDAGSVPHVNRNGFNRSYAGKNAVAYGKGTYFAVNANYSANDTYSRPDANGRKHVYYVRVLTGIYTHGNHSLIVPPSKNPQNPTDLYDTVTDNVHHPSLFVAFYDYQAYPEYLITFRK

IC50 [1]: > 10 µM
IC50 [2]: 0.57 µM
IC50 [3]: > 10 µM
SMILES: COc1ccc(C2(CNC(=O)c3ccc(NC(=O)c4ccco4)cc3Cl)CCOCC2)cc1
